Measurements as given in publication PMC6553477 (Journal of pharmaceutical sciences, 2018).
Several values for one entry are separate records, joined by “and”; a condition that tells them apart may be missing. Equal values may be shown once. Read-outs that look alike come from different tables or passages of the source. Marks after values point to notes of the source that are not given here.

Tests used:
[1] = for MBRT / CL/F: ATV-RTV-TFV DcNP; for MBRT / half-life: plasma; for half-life: monkey, in vivo
in vivo = settings: Macaca nemestrina (macaque), sc, LNMC/plasma ratio 192 h
[2] = in vivo, sc; for time concentrations were sustained in plasma: macaque (Macaca nemestrina)
[3] = Mechanism-based pharmacokinetic; assay type: in vivo, Macaca nemestrina; settings: MBPK model
[4] = PBMC intracellular drug concentrations after single subcutaneous injection; settings: for AUC: monkey, sc, AUCPBMC, ATV-RTV-TFV DcNP, single subcutaneous dose, geometric mean (95% CI); for AUC / fold higher AUCPBMC, DcNP versus free drug: macaques; for fold higher AUCPBMC, DcNP versus free drug: ATV-RTV-TFV DcNP compared with free form
[5] = for concentration at 192 h: concentration in LNMCs at 192 h after injection
[6] = in vivo
[7] = Drug association efficiency to DcNP by equilibrium dialysis; assay type: physicochemical; settings: ATV-RTV-TFV DcNP, DSPC-DSPE-mPEG2000 (9:1)
[8] = cited from earlier work; for LNMC concentration 24 h / LNMC concentration 192 h: in vivo, sc
HIV-1 protease = settings: reported; cited from earlier work
HIV [9] = settings: read-out: in vitro effective concentration that produces 90% of the maximal effect (EC90); reported in vitro; cited from earlier work
HIV [10] = settings: read-out: in vivo EC50; nonhuman primates; cited from earlier work
[11] = monkey, in vivo, sc; cited from earlier work
[12] = in vivo, sc, cited from earlier work
[13] = single subcutaneous dose, macaques, geometric mean (95% CI)
[14] = sc, Terminal t1/2, ATV-RTV-TFV DcNP, single subcutaneous dose, macaques, geometric mean (95% CI)
[15] = ATV-RTV-TFV DcNP, subcutaneous, macaques, 24 h
[16] = macaque (Macaca nemestrina), sc
[17] = ATV-RTV-TFV DcNP compared with free form, macaques
[18] = ATV-RTV-TFV DcNP versus TLC-ART 101
[19] = ATV-RTV-TFV DcNP compared with free form, macaques, 24 h
[20] = TLC-ART 101, subcutaneous, macaques, 24 h
[21] = TLC-ART 101, subcutaneous, macaques, 192 h

SMILES	MBRT [1, 13]	CL/F [1, 13]	half-life [1, 14] [days]	time concentrations were sustained in plasma [2]	K07, rate of elimination ([3]; Atazanavir-DcNP)	V5_DcNP, central compartmental apparent volume for DcNP ([3]; Atazanavir-DcNP)	V7_Free, central compartmental apparent volume for free drug ([3]; Atazanavir-DcNP)	k21, rate of DcNP absorption into the first delayed compartment ([3]; Atazanavir-DcNP)	k31, rate of DcNP absorption into the second delayed compartment ([3]; Atazanavir-DcNP)	k41, rate of DcNP absorption into the third delayed compartment ([3]; Atazanavir-DcNP)	k75, rate of degradation of DcNP into free drug between central compartments ([3]; Atazanavir-DcNP)	tlag1, delayed constant of delayed compartment 1 ([3]; Atazanavir-DcNP)	tlag2, delayed constant of delayed compartment 2 ([3]; Atazanavir-DcNP)	tlag3, delayed constant of delayed compartment 3 ([3]; Atazanavir-DcNP)	AUC ([4]; PBMC (intracellular)) [µM·h]	LNMC concentration 24 h [5, 15]	time drug concentration in PBMCs was sustained [6, 16]	% Association to DcNP [7]	LNMC concentration 24 h [8]	LNMC concentration 192 h [8]	further results
CC(C)c1nc(CN(C)C(=O)N[C@H](C(=O)N[C@@H](Cc2ccccc2)C[C@H](O)[C@H](Cc2ccccc2)NC(=O)OCc2cncs2)C(C)C)cs1 [RTV, ritonavir]	110 (46-266) h	4 L/[h·kg]	3.04	up to 14 days	0.08 (0.03-0.12) 1/h	67 (22-94) L/kg	79 (56-122) L/kg	0.40 (0.35-0.46) 1/h	0.05 (-) 1/h	0.5 (-) 1/h	0.19 (0.06-0.26) 1/h	0.3 (-) h	41 (35-46) h	186 (169-199) h	85	0.40^a (0.06-3.00) μM	up to 336 h	92 ± 7.1% and 92 ± 7%	6.3^a (4.4-8.5) μM	1.00 (0.06-2.00) μM	Kp at 192 h (in vivo): 23; AUC ([4]; PBMC, PBMC intracellular): 79 µM·h; LNMC concentration ([5]; RTV in ATV-RTV-TFV DcNP, macaques, unit as printed in text (Table 4: 24 h)): 0.4 mM; last PBMC concentration timepoint detected ([6]; macaque (Macaca nemestrina)): 48 h
COC(=O)N[C@H](C(=O)N[C@@H](Cc1ccccc1)[C@@H](O)CN(Cc1ccc(-c2ccccn2)cc1)NC(=O)[C@@H](NC(=O)OC)C(C)(C)C)C(C)(C)C [ATV, atazanavir]	650 (370-1230) h	11^a (8-13) L/[h·kg]	19.5	up to 14 days	0.29 (-) 1/h	1259^a (569-1680) L/kg	113 (97-133) L/kg	0.15 (0.1-0.3) 1/h	0.05 (-) 1/h	0.7 (-) 1/h	0.04^a (0.01-0.06) 1/h	0.25 (-) h	16 (9-25) h	440 (336-520) h	435	0.10 (0.04-0.24) μM	up to 336 h	99 ± 8.2% and 99 ± 8%			fold higher plasma AUC, DcNP versus free drug [1, 17]: 5 fold; fold longer MBRT, DcNP versus free drug [1, 17]: 116 fold; fold lower CL/F, DcNP versus free drug [1, 17]: 4 fold; fold higher CL/F, free ATV compared with free LPV ([1]; free drugs, macaques): 9 fold; fold lower AUC, free ATV compared with free LPV ([1]; free drugs, macaques): 8 fold; half-life ([1]; terminal half-life, DcNP ATV, macaques (Table 2)): ~20 days; fold higher antiretroviral activity compared with several other commercialized protease inhibitors (HIV-1 protease): 2- to 20 fold; fold higher V5_DcNP for ATV than LPV [3, 18]: 180 fold; fold lower k75 for ATV than LPV [3, 18]: 18 fold; fold higher AUCPBMC, DcNP versus free drug [4]: 33 fold; fold higher PBMC exposure (AUCPBMC) of ATV than LPV ([4]; ATV-RTV-TFV DcNP versus TLC-ART 101, macaques): 5.5 fold; fold higher intracellular LNMC concentration at 24 h, DcNP versus free drug [5, 19]: 3 fold; fold lower LNMC-to-plasma ratio at 24 h, DcNP versus free drug [5, 19]: 4 fold; fold higher intracellular LNMC concentration at 192 h, DcNP versus free drug ([5]; ATV-RTV-TFV DcNP compared with free form, macaques, 192 h): 3 fold; intracellular LNMC concentration at 192 h ([5]; ATV-RTV-TFV DcNP, macaques, 192 h): 0.09 mμM; LNMC/PBMC ratio 192 h ([5]; ATV-RTV-TFV DcNP, subcutaneous, macaques, 192 h, n=2): 2.4^b; intracellular LNMC concentration at 192 h ([5]; free drug, macaques, 192 h): 0.03 mμM; concentration at 24 h ([5]; macaque (Macaca nemestrina), lymph node mononuclear cells (LNMC), sc, concentration in LNMCs at 24 h after injection, ATV-RTV-TFV DcNP, subcutaneous, primates, 24 h): 100 nM; concentration at 192 h ([5]; macaque (Macaca nemestrina), lymph node mononuclear cells (LNMC), sc, ATV-RTV-TFV DcNP, subcutaneous, primates, 192 h): 90 nM; EC90 (HIV [9]): 13 nM
C[C@H](Cn1cnc2c(N)ncnc21)OCP(=O)(O)O [TFV, 9-(2-Phosphonyl-methoxypropyly)adenine]	128 (65-254) h	0.004 (0.002-0.015) L/[h·kg]	2.75	up to 14 days	0.4 (0.08-2) 1/h	0.7 (0.5-0.9) L/kg	1.1 (0.8-1.3) L/kg	0.05 (-) 1/h	0.1 (-) 1/h	0.15 (-) 1/h	0.026 (0.009-0.03) 1/h	1 h	23 (-) h	106 (76-132) h			up to 192 h	10 ± 0.8% and 10 ± 1%	25 (14-47) μM	19 (3.6-280) μM	fold higher plasma AUC, DcNP versus free drug [1, 17]: 35 fold; fold longer MBRT, DcNP versus free drug [1, 17]: 41 fold; fold longer apparent t1/2, DcNP versus free drug [1, 17]: 7 fold; fold lower CL/F, DcNP versus free drug [1, 17]: 23 fold; AUC (plasma, extrapolated to infinity) ([2]; monkey): 3057 (1029-9078) h·μM; k76, rate of absorption of free drug ([3]; Atazanavir-DcNP): 1.7 (0.6-2.5) 1/h; k78, rate from periphery to central free compartment ([3]; Atazanavir-DcNP): 0.06 (-) 1/h; k87, rate from central free compartment to periphery ([3]; Atazanavir-DcNP): 0.02 (-) 1/h; fold higher AUCPBMC, DcNP versus free drug [4]: 5 fold; LNMC/PBMC ratio 24 h ([5]; free drug combination, subcutaneous, macaques, 24 h): 1.8^d; concentration at 192 h ([5]; macaque (Macaca nemestrina), in vivo, sc, ATV-RTV-TFV DcNP, subcutaneous, primates, 192 h): 130 nM; AUCPBMC ([6]; monkey, sc): 1134 (588-1554) h·μM; LNMC/PBMC ratio 24 h [8, 20]: 0.93 (0.39-2.3); LNMC/plasma ratio 24 h [8, 20]: 3 (1.5-5.3); LNMC/PBMC ratio 192 h [8, 21]: 4.4 (0.45-340.0); LNMC/plasma ratio 192 h [8, 21]: 6.8 (1.4-75); EC50 (HIV [10]): 49 nM
Cc1cccc(C)c1OCC(=O)N[C@@H](Cc1ccccc1)[C@@H](O)C[C@H](Cc1ccccc1)NC(=O)[C@H](C(C)C)N1CCCNC1=O [LPV, lopinavir]																					AUCPBMC [11]: 22 (10-33)^c h·μM; AUC (plasma, extrapolated to infinity) [12]: 4.8 (4.2-4.6)^c h·μM; CL/F ([12]; monkey): 5 L/[h·kg]; Terminal t1/2 ([12]; monkey): 8.7 (5.3-10.4)^c h
